Test results as given in patent publication US8192962B2, “Processes for detecting toxic substances” (Daikin Industries, Ltd., priority 2001, dated 2012).

Test system: Mitochondria-located protein genes
Assay: DNA chip mRNA expression in yeast, mitochondria-located protein genes (Table 2)
Type: cell-based, Saccharomyces cerevisiae S288C
Conditions: cells incubated two hours with the chemical substance
Method in brief: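 Ratios compare mRNA levels in stressed and control S. cerevisiae. Each toxicant was applied for two hours to log-phase cultures at 25° C. at a sub-lethal, growth-inhibiting level; fluorescent cDNA (Cy3- or Cy5-dUTP) was hybridized to a genome-wide yeast chip for over 12 h at 65° C.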

S=C([S-])NCCNC(=S)[S-].[Zn+2] [(11), zinc N,N′-ethylenebis(dithiocarbamate)]
The level of expressed mRNA in the presence of chemical substance/The level of expressed mRNA in the absence of chemical substance (yeast gene YJR121W): 0.9
The level of expressed mRNA in the presence of chemical substance/The level of expressed mRNA in the absence of chemical substance (yeast gene YKL003C): 1.7
The level of expressed mRNA in the presence of chemical substance/The level of expressed mRNA in the absence of chemical substance (yeast gene YKL016C): 1.3
The level of expressed mRNA in the presence of chemical substance/The level of expressed mRNA in the absence of chemical substance (yeast gene YKL141W): 1.2
The level of expressed mRNA in the presence of chemical substance/The level of expressed mRNA in the absence of chemical substance (yeast gene YKL142W): 2.0
The level of expressed mRNA in the presence of chemical substance/The level of expressed mRNA in the absence of chemical substance (yeast gene YKL148C): 1.5
The level of expressed mRNA in the presence of chemical substance/The level of expressed mRNA in the absence of chemical substance (yeast gene YKL170W): 0.7
The level of expressed mRNA in the presence of chemical substance/The level of expressed mRNA in the absence of chemical substance (yeast gene YKL194C): 1.6
The level of expressed mRNA in the presence of chemical substance/The level of expressed mRNA in the absence of chemical substance (yeast gene YKR066C): 1.3
The level of expressed mRNA in the presence of chemical substance/The level of expressed mRNA in the absence of chemical substance (yeast gene YLL041C): 1.3
The level of expressed mRNA in the presence of chemical substance/The level of expressed mRNA in the absence of chemical substance (yeast gene YLR038C): 1.4
The level of expressed mRNA in the presence of chemical substance/The level of expressed mRNA in the absence of chemical substance (yeast gene YLR259C): 3.0
The level of expressed mRNA in the presence of chemical substance/The level of expressed mRNA in the absence of chemical substance (yeast gene YLR295C): 1.3
The level of expressed mRNA in the presence of chemical substance/The level of expressed mRNA in the absence of chemical substance (yeast gene YLR304C): 1.6
The level of expressed mRNA in the presence of chemical substance/The level of expressed mRNA in the absence of chemical substance (yeast gene YLR348C): 1.3
The level of expressed mRNA in the presence of chemical substance/The level of expressed mRNA in the absence of chemical substance (yeast gene YLR395C): 1.5
The level of expressed mRNA in the presence of chemical substance/The level of expressed mRNA in the absence of chemical substance (yeast gene YML054C): 1.4
The level of expressed mRNA in the presence of chemical substance/The level of expressed mRNA in the absence of chemical substance (yeast gene YML120C): 1.3
The level of expressed mRNA in the presence of chemical substance/The level of expressed mRNA in the absence of chemical substance (yeast gene YML129C): 1.2
The level of expressed mRNA in the presence of chemical substance/The level of expressed mRNA in the absence of chemical substance (yeast gene YMR023C): 0.8
The level of expressed mRNA in the presence of chemical substance/The level of expressed mRNA in the absence of chemical substance (yeast gene YMR035W): 1.5
The level of expressed mRNA in the presence of chemical substance/The level of expressed mRNA in the absence of chemical substance (yeast gene YMR083W): 1.6
The level of expressed mRNA in the presence of chemical substance/The level of expressed mRNA in the absence of chemical substance (yeast gene YMR089C): 1.3
The level of expressed mRNA in the presence of chemical substance/The level of expressed mRNA in the absence of chemical substance (yeast gene YMR152W): 1.2
The level of expressed mRNA in the presence of chemical substance/The level of expressed mRNA in the absence of chemical substance (yeast gene YMR203W): 2.3
The level of expressed mRNA in the presence of chemical substance/The level of expressed mRNA in the absence of chemical substance (yeast gene YMR267W): 1.0
The level of expressed mRNA in the presence of chemical substance/The level of expressed mRNA in the absence of chemical substance (yeast gene YNL055C): 1.9
The level of expressed mRNA in the presence of chemical substance/The level of expressed mRNA in the absence of chemical substance (yeast gene YNL071W): 1.6
The level of expressed mRNA in the presence of chemical substance/The level of expressed mRNA in the absence of chemical substance (yeast gene YNL073W): 1.1
The level of expressed mRNA in the presence of chemical substance/The level of expressed mRNA in the absence of chemical substance (yeast gene YNL104C): 2.1
The level of expressed mRNA in the presence of chemical substance/The level of expressed mRNA in the absence of chemical substance (yeast gene YNL256W): 0.6
The level of expressed mRNA in the presence of chemical substance/The level of expressed mRNA in the absence of chemical substance (yeast gene YOL096C): 1.2
The level of expressed mRNA in the presence of chemical substance/The level of expressed mRNA in the absence of chemical substance (yeast gene YOR020C): 2.5
The level of expressed mRNA in the presence of chemical substance/The level of expressed mRNA in the absence of chemical substance (yeast gene YOR037W): 1.2
The level of expressed mRNA in the presence of chemical substance/The level of expressed mRNA in the absence of chemical substance (yeast gene YOR100C): 1.4
The level of expressed mRNA in the presence of chemical substance/The level of expressed mRNA in the absence of chemical substance (yeast gene YOR130C): 0.6
The level of expressed mRNA in the presence of chemical substance/The level of expressed mRNA in the absence of chemical substance (yeast gene YOR142W): 1.5
The level of expressed mRNA in the presence of chemical substance/The level of expressed mRNA in the absence of chemical substance (yeast gene YOR150W): 1.0
The level of expressed mRNA in the presence of chemical substance/The level of expressed mRNA in the absence of chemical substance (yeast gene YOR176W): 1.4
The level of expressed mRNA in the presence of chemical substance/The level of expressed mRNA in the absence of chemical substance (yeast gene YOR187W): 1.4
The level of expressed mRNA in the presence of chemical substance/The level of expressed mRNA in the absence of chemical substance (yeast gene YOR316C): 2.4
The level of expressed mRNA in the presence of chemical substance/The level of expressed mRNA in the absence of chemical substance (yeast gene YPL040C): 0.9
The level of expressed mRNA in the presence of chemical substance/The level of expressed mRNA in the absence of chemical substance (yeast gene YPL134C): 1.7
The level of expressed mRNA in the presence of chemical substance/The level of expressed mRNA in the absence of chemical substance (yeast gene YPL135W): 1.3
The level of expressed mRNA in the presence of chemical substance/The level of expressed mRNA in the absence of chemical substance (yeast gene YPL215W): 1.1
The level of expressed mRNA in the presence of chemical substance/The level of expressed mRNA in the absence of chemical substance (yeast gene YPL262W): 1.4
The level of expressed mRNA in the presence of chemical substance/The level of expressed mRNA in the absence of chemical substance (yeast gene YPR024W): 0.9
The level of expressed mRNA in the presence of chemical substance/The level of expressed mRNA in the absence of chemical substance (yeast gene YPR037C): 0.9
The level of expressed mRNA in the presence of chemical substance/The level of expressed mRNA in the absence of chemical substance (yeast gene YPR047W): 1.1
The level of expressed mRNA in the presence of chemical substance/The level of expressed mRNA in the absence of chemical substance (yeast gene YPR134W): 1.3
